Patent publication US6979732B1, “Polynucleotide compositions encoding S-adenosyl-L-methionine:phosphoethanolamine N-methyltransferase and methods for modulating lipid biosynthesis in plants” (University of Florida, priority 2000, dated 2005)
One block for each molecule: values may come before it.

Tests used:
[1] = biological target: T1, PEAMT (Spinacia oleracea, UniProt Q9M571); assay: AdoMet:Ptd-EA N-methyltransferase activity assay of the complemented strain; format: biochemical; settings: complemented strain extract
T1 construct: The PEAMT cDNA comprises a 494-residue open reading frame; made in house; host or cells: Schizosaccharomyces pombe Bx22 (leu1 cho2-) carrying pREP3-PEAMT; desalted crude extract, not purified
T1 sequence (Q9M571 1-494): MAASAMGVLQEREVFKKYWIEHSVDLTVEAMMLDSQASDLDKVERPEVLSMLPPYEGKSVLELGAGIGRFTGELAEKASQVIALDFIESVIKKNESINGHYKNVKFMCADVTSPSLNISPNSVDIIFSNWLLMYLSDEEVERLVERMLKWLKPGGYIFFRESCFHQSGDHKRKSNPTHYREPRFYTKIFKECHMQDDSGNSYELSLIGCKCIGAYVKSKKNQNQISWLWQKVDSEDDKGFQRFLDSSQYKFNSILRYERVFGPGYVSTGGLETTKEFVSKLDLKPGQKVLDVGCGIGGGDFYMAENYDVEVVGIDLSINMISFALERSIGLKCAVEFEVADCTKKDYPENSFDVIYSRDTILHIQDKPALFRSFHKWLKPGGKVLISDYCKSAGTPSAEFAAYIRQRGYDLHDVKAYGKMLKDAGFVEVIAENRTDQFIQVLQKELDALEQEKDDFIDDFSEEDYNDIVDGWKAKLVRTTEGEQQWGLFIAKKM
Method: (§1) AdoMet:EA N-methyltransferase activity was assayed as above except that reactions contained 200 nmol EA and 160 nmol (40 nCi) of [methyl-^14C]AdoMet. The [methyl-^14C]AdoMet was removed by treating with activated charcoal and centrifuging (Cook and Wagner, 1984), and ^14C-incorporation into freebase products was measured by counting a sample of the supernatant. […] For assay blanks, EA was omitted. AdoMet:Ptd-EA N-methyltransferase activity was measured essentially as described (Datko and Mudd, 1988b). Assays (final volume 100 μl) contained 9 μl 10X assay buffer, 0.8 nmol (47 nCi) [methyl-^14C]AdoMet, 10 μl of a Ptd-EA emulsion in 1× assay buffer (10 mg ml^−1, sonicated for 3×30 sec), and enzyme extract; incubation was for 30 min at 30° C. The phospholipid fraction was isolated for ^14C quantification as described (Datko and Mudd, 1988b) except that the methanol:chloroform:water proportions were 12:5:1 (vol./vol./vol.). Data were corrected for the ^14C incorporation in control assays containing extract from Bx22 cells.

[2] = biological target: T1, PEAMT; assay: PEAMT activity assay with extracts of S. pombe Bx22 cells expressing recombinant wild type PEAMT; format: biochemical; settings: for inhibition of PEAMT activity (in words): metabolite at 2 mM
Method: Cells were grosn to an OD600 of ≈1 in 50 ml of medium at 30° C., shaking at 250 rpm. […] Subsequent operations were at 0-4° C. Cells were harvested by centrifugation (5000×g, 10 min), washed twice with water and once with 100 mM HEPES-KOH, pH 7.8, resuspended in 0.5 ml of lysis buffer (100 mM HEPES-KOH, pH 7.8, 2 mM Na2EDTA, 5 mM dithiothreitol, 10% glycerol) and transferred to 2-ml microfuge tubes containing ≈1.5 g of acid-washed glass beads (425-600 μm). Cells were broken by vortexing at maximum speed for 2 min. The brei was centrifuged (16,000×g, 2 min), the supernatant was removed and the beads were washed with 3×1 ml of lysis buffer. The combined supernatants were clarified by centrifugation (16,000×g, 15 min) and desalted on a PD-10 column (Amersham Pharmacia Biotech, Piscataway, N.J.) equilibrated with storage buffer (10 mM HEPES-KOH, pH 7.8, 2 mM Na2EDTA, 5 mM dithiotreitol, 10% glycerol). The extract was aliquotted, frozen in liquid N2 and stored at […]. Spinach leaf extracts were prepared as described (Summers and […], 1993). Protein was determined using the Bio-Rad dye reagent (Hercules, Calif.). Native molecular mass was estimated using a Waters 626 HPLC system (Milford, Mass.) equipped with a Superdex 200 HR 10/30 column (Amersham Pharmacia Biotech) as described ([…] al., 1995). PEAMT activity was measured by a modification of published methods (Datko and Mudd, 1988b; Summers and […], 1993), under conditions in which product formation was proportional to enzyme concentration and time. […] Reactions were stopped by adding 1 ml of ice-cold water; each was applied to a 1-ml AG-50 (HR^+) column held at 4° C. and the assay tube was rinsed with 1 ml of water, which was also applied to the column. Products were eluted with 10 ml of 0.1 N HCl, and 2 ml of the eluate was mixed with 3 ml of Ready Gel scintillation fluid (Beckman, Palo Alto, Calif.) and counted. For assay blanks, enzyme was omitted during incubation and added just before the ion exchange step.

[3] = biological target: T2, ΔPEAMT (Spinacia oleracea, UniProt Q9M571); assay: PEAMT activity assay with extracts of S. pombe Bx22 cells expressing truncated ΔPEAMT; format: biochemical
T2 construct: made in house; host or cells: Schizosaccharomyces pombe Bx22 (leu1 cho2-) carrying pREP3-ΔPEAMT; desalted crude extract, not purified
T2 sequence (Q9M571 with tags, fused parts or gaps): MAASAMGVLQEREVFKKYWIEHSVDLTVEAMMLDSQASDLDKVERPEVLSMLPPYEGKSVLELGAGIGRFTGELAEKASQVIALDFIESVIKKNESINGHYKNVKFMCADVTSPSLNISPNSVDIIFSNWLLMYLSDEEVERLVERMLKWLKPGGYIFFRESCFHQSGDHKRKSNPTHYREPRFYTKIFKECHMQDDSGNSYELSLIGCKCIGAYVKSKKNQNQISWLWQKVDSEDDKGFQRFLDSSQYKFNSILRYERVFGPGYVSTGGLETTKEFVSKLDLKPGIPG
Method: The plasmid encoding PEAMT, designated pREP3-PEAMT, was digested with BamHI and end-polished with T4 DNA polymerase. The 3'-sequence of PEAMT was removed by digestion with MscI; the remaining sequence plus vector was gel-purified and religated to give ΔPEAMT. In ΔPEAMT the native coding sequence terminates at […], and the pREP3 polylinker adds the sequence […] to the carboxyl-terminus. Cells were grosn to an OD600 of ≈1 in 50 ml of medium at 30° C., shaking at 250 rpm. […] Subsequent operations were at 0-4° C. Cells were harvested by centrifugation (5000×g, 10 min), washed twice with water and once with 100 mM HEPES-KOH, pH 7.8, resuspended in 0.5 ml of lysis buffer (100 mM HEPES-KOH, pH 7.8, 2 mM Na2EDTA, 5 mM dithiothreitol, 10% glycerol) and transferred to 2-ml microfuge tubes containing ≈1.5 g of acid-washed glass beads (425-600 μm). Cells were broken by vortexing at maximum speed for 2 min. The brei was centrifuged (16,000×g, 2 min), the supernatant was removed and the beads were washed with 3×1 ml of lysis buffer. The combined supernatants were clarified by centrifugation (16,000×g, 15 min) and desalted on a PD-10 column (Amersham Pharmacia Biotech, Piscataway, N.J.) equilibrated with storage buffer (10 mM HEPES-KOH, pH 7.8, 2 mM Na2EDTA, 5 mM dithiotreitol, 10% glycerol). The extract was aliquotted, frozen in liquid N2 and stored at […]. Spinach leaf extracts were prepared as described (Summers and […], 1993). Protein was determined using the Bio-Rad dye reagent (Hercules, Calif.). Native molecular mass was estimated using a Waters 626 HPLC system (Milford, Mass.) equipped with a Superdex 200 HR 10/30 column (Amersham Pharmacia Biotech) as described ([…] al., 1995). PEAMT activity was measured by a modification of published methods (Datko and Mudd, 1988b; Summers and […], 1993), under conditions in which product formation was proportional to enzyme concentration and time. […] Products were eluted with 10 ml of 0.1 N HCl, and 2 ml of the eluate was mixed with 3 ml of Ready Gel scintillation fluid (Beckman, Palo Alto, Calif.) and counted. […]

[4] = biological target: T1, PEAMT; assay: AdoMet:EA N-methyltransferase activity assay of the complemented strain; format: biochemical; settings: complemented strain extract
Method: as §1

[5] = substrate: NCCOP(=O)(O)O; assay: PEAMT activity assay with extracts of S. pombe Bx22 cells expressing recombinant wild type PEAMT; format: biochemical, Spinacia oleracea; settings: other: recombinant PEAMT, substrate
Method: Cells were grosn to an OD600 of ≈1 in 50 ml of medium at 30° C., shaking at 250 rpm. […] Subsequent operations were at 0-4° C. Cells were harvested by centrifugation (5000×g, 10 min), washed twice with water and once with 100 mM HEPES-KOH, pH 7.8, resuspended in 0.5 ml of lysis buffer (100 mM HEPES-KOH, pH 7.8, 2 mM Na2EDTA, 5 mM dithiothreitol, 10% glycerol) and transferred to 2-ml microfuge tubes containing ≈1.5 g of acid-washed glass beads (425-600 μm). Cells were broken by vortexing at maximum speed for 2 min. The brei was centrifuged (16,000×g, 2 min), the supernatant was removed and the beads were washed with 3×1 ml of lysis buffer. The combined supernatants were clarified by centrifugation (16,000×g, 15 min) and desalted on a PD-10 column (Amersham Pharmacia Biotech, Piscataway, N.J.) equilibrated with storage buffer (10 mM HEPES-KOH, pH 7.8, 2 mM Na2EDTA, 5 mM dithiotreitol, 10% glycerol). […] Protein was determined using the Bio-Rad dye reagent (Hercules, Calif.). […] PEAMT activity was measured by a modification of published methods (Datko and Mudd, 1988b; Summers and […], 1993), under conditions in which product formation was proportional to enzyme concentration and time. […] Products were eluted with 10 ml of 0.1 N HCl, and 2 ml of the eluate was mixed with 3 ml of Ready Gel scintillation fluid (Beckman, Palo Alto, Calif.) and counted. […]

[6] = 3-hr incubation, small quantity of P-EA, 5-fold excess of [methyl-14C]AdoMet

Molecule: C[N+](C)(C)CC(=O)[O-] [GlyBet, glycine betaine]
inhibition of PEAMT activity (in words) [2]: not inhibitory

Molecule: CN(C)CCO [DME]
inhibition of PEAMT activity (in words) [2]: not inhibitory

Molecule: C[S+](CC[C@H](N)C(=O)[O-])C[C@H]1O[C@@H](n2cnc3c(N)ncnc32)[C@H](O)[C@@H]1O (stereo partly drawn) [AdoMet, S-adenosyl-L-methionine]
Km ([2]; recombinant PEAMT, substrate): 140 µM

Molecule: NCCO [EA, ethanolamine]
activity with EA as substrate [4]: < 1 pkat mg^−1 protein

B1: PEAMT (Spinacia oleracea) (protein)
chain: T1 sequence (Q9M571 1-494)
notes: The PEAMT cDNA comprises a 494-residue open reading frame; made in house; host or cells: Schizosaccharomyces pombe Bx22 (leu1 cho2-) carrying pREP3-PEAMT; desalted crude extract, not purified
Km [5]: 96 µM

Second part, led by results:

activity with Ptd-EA as substrate [1]: < 1 pkat mg^−1 protein
Molecule: phosphatidylethanolamine [Ptd-EA]

PEAMT activity in the absence of P-Cho ([2]; 25 μg protein, 10 min, 50 nmol P-EA, 170 nmol AdoMet): 737±18 pkat mg^−1 protein | reaction product [2, 6]: almost solely [^14C]P-Cho | specific activity of PEAMT in extracts of complemented cells relative to spinach leaves ([2]; FIG. 2A): up to 80 fold | pH optimum of PEAMT activity ([2]; recombinant PEAMT): 8.1-8.5
Molecule: S-adenosyl-L-methionine:phosphoethanolamine N-methyltransferase [PEAMT]

reduction of PEAMT activity ([2]; 2 mM P-Cho, 50 nmol P-EA, 170 nmol [methyl-14C]AdoMet, 10 min): 80% | inhibition at 10000 µM ([2]; 10 mM P-Cho, saturating P-EA concentration, read-out: reduction (inhibition) of PEAMT activity): 95%
Molecule: C[N+](C)(C)CCOP(=O)([O-])O [P-Cho, phosphocholine]
sensitivity of ΔPEAMT to P-Cho compared with the wild-type enzyme ([3]; 10 mM P-Cho, P=0.05): retaining twice as much of its initial activity

inhibition of PEAMT activity (in words) [2]: not inhibitory
Molecule: CNCCO [MME]

PEAMT activity in the absence of P-Cho ([3]; 50 μg protein, 10 min, 50 nmol P-EA, 170 nmol AdoMet): 200±10 pkat mg^−1 protein | reaction product [3, 6]: only [^14C]P-MME
B2: ΔPEAMT: truncated spinach PEAMT; native coding sequence terminates at Gly-286, plus Ile Pro Gly; SEQ ID NO:4 (protein, listed as Spinacia oleracea)
chain: T2 sequence (Q9M571 with tags, fused parts or gaps)
